US8163793B2, “Proline derivatives” (Hoffman-La Roche Inc., priority 2009, dated 2012)
pIC50: −log10 of the molar value.

What was measured:
Cathepsin S = Cathepsin S (UniProt P25774); experiment: Cathepsin enzyme inhibition assay (fluorogenic peptide substrate Z-Val-Val-Arg-AMC), Cathepsin S; format: biochemical, human and mouse; details: enzyme 1 nM, substrate 20 μM, pH 6.5; read-out: CatS IC50
In short: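 Human or mouse cathepsin S (1 nM) was run in 100 mM potassium phosphate pH 6.5 with 5 mM EDTA, 0.001% Triton X-100 and 5 mM DTT. The rise in AMC fluorescence from cleavage was measured, and IC50 values were calculated by standard methods and expressed in μM.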

Cat L = Cat L (UniProt P07711); experiment: Cathepsin enzyme inhibition assay (fluorogenic peptide substrate Z-Val-Val-Arg-AMC), Cathepsin L; format: biochemical, human and mouse; details: enzyme 1 nM, substrate 20 μM, pH 6.5; read-out: CatL IC50
In short: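 Cathepsin L at 1 nM was mixed with compound, then started with 20 μM Z-Val-Val-Arg-AMC in pH 6.5 potassium phosphate with EDTA, Triton X-100 and 5 mM DTT. AMC fluorescence (ex 360/em 465 nm) was followed over 20 min. IC50 is given in μM.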

pIC50 (Cathepsin S)	pIC50 (Cat L)	SMILES
9.38	6.47	N#CC1(NC(=O)[C@@H]2C[C@@H](S(=O)(=O)c3ccccc3Cl)CN2C(=O)C2(c3cccc(Cl)c3)CC2)CC1 [Example 428, (2S,4R)-1-(1-(3-chlorophenyl)cyclopropanecarbonyl)-4-(2-chlorophenylsulfonyl)-N-(1-cyanocyclopropyl)pyrrolidine-2-carboxamide]
9.44	6.34	N#CC1(NC(=O)[C@@H]2C[C@@H](S(=O)(=O)c3ccccc3Cl)CN2C(=O)C2(c3cccc(C(F)(F)F)c3)CC2)CC1 [Example 429, (2S,4R)-4-(2-chlorophenylsulfonyl)-N-(1-cyanocyclopropyl)-1-(1-(3-(trifluoromethyl)phenyl)cyclopropanecarbonyl)pyrrolidine-2-carboxamide]
9.09	5.59	CC(C(=O)N1C[C@H](S(=O)(=O)c2ccccc2Cl)C[C@H]1C(=O)NC1(C#N)CC1)c1ccc(Cl)cc1 (stereo partly drawn) [Example 430, (2S,4R)-1-(2-(4-chlorophenyl)propanoyl)-4-(2-chlorophenylsulfonyl)-N-(1-cyanocyclopropyl)pyrrolidine-2-carboxamide]
9.06	6.89	CC(C(=O)N1C[C@H](S(=O)(=O)c2ccccc2Cl)C[C@H]1C(=O)NC1(C#N)CC1)c1ccc(Cl)cc1 (some centres unmarked) [Example 431]
9.23	6.94	CC(C)C(C(=O)N1C[C@H](S(=O)(=O)c2ccccc2Cl)C[C@H]1C(=O)NC1(C#N)CC1)c1ccc(Cl)cc1 (stereo partly drawn) [Example 432, (2S,4R)-1-(2-(4-chlorophenyl)-3-methylbutanoyl)-4-(2-chlorophenylsulfonyl)-N-(1-cyanocyclopropyl)pyrrolidine-2-carboxamide]
8.71	6.02	CC(C)(C)OC(=O)N1CCC(C(=O)N2C[C@H](S(=O)(=O)c3ccccc3Cl)C[C@H]2C(=O)NC2(C#N)CC2)(c2ccc(Cl)cc2)CC1 [Example 433, tert-butyl 4-(4-chlorophenyl)-4-((2S,4R)-4-(2-chlorophenylsulfonyl)-2-(1-cyanocyclopropylcarbamoyl)pyrrolidine-1-carbonyl)piperidine-1-carboxylate]
8.84	6.47	N#CC1(NC(=O)[C@@H]2C[C@@H](S(=O)(=O)c3ccccc3Cl)CN2C(=O)C(F)(F)c2ccc(Cl)c(Cl)c2)CC1 [Example 437, (2S,4R)-4-(2-Chloro-benzenesulfonyl)-1-[2-(3,4-dichloro-phenyl)-2,2-difluoro-acetyl]-pyrrolidine-2-carboxylic acid (1-cyano-cyclopropyl)-amide]
9.05	7.53	N#CC1(NC(=O)[C@@H]2C[C@@H](S(=O)(=O)c3ccccc3Cl)CN2C(=O)C2(c3ccc(Cl)cc3F)CC2)CC1 [Example 439, (2S,4R)-1-(1-(4-chloro-2-fluorophenyl)cyclopropanecarbonyl)-4-(2-chlorophenylsulfonyl)-N-(1-cyanocyclopropyl)pyrrolidine-2-carboxamide]
5.13	≤ 4.60	CS(=O)(=O)[C@@H]1C[C@@H](C(=O)NC2(C#N)CC2)N(C(=O)C2(C(F)(F)F)CC2)C1 [Example 440, (2S,4R)-4-Methanesulfonyl-1-(1-trifluoromethyl-cyclopropanecarbonyl)-pyrrolidine-2-carboxylic acid (1-cyano-cyclopropyl)-amide]
7.07	≤ 4.60	CC(C)(C)c1ccc([C@@H]2N[C@](CCS(=O)(=O)c3ccccc3)(C(=O)NC3(C#N)CC3)C[C@H]2S(=O)(=O)c2ccccc2)cc1 [Example 441, (2S,4R,5S)-5-(4-tert-butylphenyl)-N-(1-cyanocyclopropyl)-4-(phenylsulfonyl)-2-(2-(phenylsulfonyl)ethyl)pyrrolidine-2-carboxamide]
9.21	6.62	N#CC1(NC(=O)[C@@H]2C[C@@H](S(=O)(=O)c3ccccc3Cl)CN2C(=O)C(F)(F)c2ccc(Cl)cc2)CC1 [Example 442, (2S,4R)-4-(2-Chloro-benzenesulfonyl)-1-[2-(4-chloro-phenyl)-2,2-difluoro-acetyl]-pyrrolidine-2-carboxylic acid (1-cyano-cyclopropyl)-amide]
9.22	7.66	N#CC1(NC(=O)[C@@H]2C[C@@H](S(=O)(=O)c3ccccc3Cl)CN2C(=O)C2(c3ccc(Cl)cc3Cl)CC2)CC1 [Example 443, (2S,4R)-4-(2-Chloro-benzenesulfonyl)-1-[1-(2,4-dichloro-phenyl)-cyclopropanecarbonyl]-pyrrolidine-2-carboxylic acid (1-cyano-cyclopropyl)-amide]
9.05	6.59	N#CC1(NC(=O)[C@@H]2C[C@@H](S(=O)(=O)c3ccccc3Cl)CN2C(=O)Cc2ccc(Cl)c(F)c2)CC1 [Example 444, (2S,4R)-4-(2-Chloro-benzenesulfonyl)-1-[2-(4-chloro-3-fluoro-phenyl)-acetyl]-pyrrolidine-2-carboxylic acid (1-cyano-cyclopropyl)-amide]
6.14	≤ 4.60	Cc1cc(N2C[C@H](S(=O)(=O)CC3CC3)C[C@H]2C(=O)NC2(C#N)CC2)n(Cc2ccccc2)n1 [Example 445, (2S,4R)-1-(2-Benzyl-5-methyl-2H-pyrazol-3-yl)-4-cyclopropylmethanesulfonyl-pyrrolidine-2-carboxylic acid (1-cyano-cyclopropyl)-amide]
9.56	7.67	N#CC1(NC(=O)[C@@H]2C[C@@H](S(=O)(=O)c3ccccc3Cl)CN2C(=O)C2(c3ccc(Cl)c(F)c3)CC2)CC1 [Example 446, (2S,4R)-4-(2-Chloro-benzenesulfonyl)-1-[1-(4-chloro-3-fluoro-phenyl)-cyclopropanecarbonyl]-pyrrolidine-2-carboxylic acid (1-cyano-cyclopropyl)-amide]
5.21	≤ 4.60	CC(C)(C)c1ccc(C2NC(C(=O)NC3(C#N)CC3)CC2S(=O)(=O)c2ccccc2)cc1 (centres unmarked) [Example 447, 4-Benzenesulfonyl-5-(4-tert-butyl-phenyl)-pyrrolidine-2-carboxylic acid (1-cyano-cyclopropyl)-amide]
5.08	≤ 4.60	Cc1cc(N2C[C@H](S(C)(=O)=O)C[C@H]2C(=O)NC2(C#N)CC2)n(CCc2ccccc2)n1 [Example 448, (2S,4R)-4-Methanesulfonyl-1-(5-methyl-2-phenethyl-2H-pyrazol-3-yl)-pyrrolidine-2-carboxylic acid (1-cyano-cyclopropyl)-amide]
4.98	≤ 4.60	Cc1cc(N2C[C@H](S(C)(=O)=O)C[C@H]2C(=O)NC2(C#N)CC2)n(Cc2ccccc2)n1 [Example 449, (2S,4R)-1-(2-Benzyl-5-methyl-2H-pyrazol-3-yl)-4-methanesulfonyl-pyrrolidine-2-carboxylic Acid (1-cyano-cyclopropyl)-amide]
6.17	≤ 4.60	C=CCOc1ccccc1S(=O)(=O)[C@@H]1C[C@@H](C(=O)NC2(C#N)CC2)N(C(=O)OC(C)(C)C)C1 [Example 450, (2S,4R)-4-(2-Allyloxy-benzenesulfonyl)-2-(1-cyano-cyclopropylcarbamoyl)-pyrrolidine-1-carboxylic acid tert-butyl ester]
9.12	5.20	N#CC1(NC(=O)[C@@H]2C[C@@H](S(=O)(=O)c3ccc(OCC(F)(F)F)cc3C(F)(F)F)CN2C(=O)C2(CO)CC2)CC1 [Example 451, (2S,4R)-1-(1-Hydroxymethyl-cyclopropanecarbonyl)-4-[4-(2,2,2-trifluoro-ethoxy)-2-trifluoromethyl-benzenesulfonyl]-pyrrolidine-2-carboxylic acid (1-cyano-cyclopropyl)-amide]
8.93	5.10	N#CC1(NC(=O)[C@@H]2C[C@@H](S(=O)(=O)c3ccccc3Cl)CN2C(=O)C2(CO)CC2)CC1 [Example 452, (2S,4R)-4-(2-Chloro-benzenesulfonyl)-1-(1-hydroxymethyl-cyclopropanecarbonyl)-pyrrolidine-2-carboxylic acid (1-cyano-cyclopropyl)-amide]
6.07	≤ 4.60	C=CCOc1ccccc1S(=O)(=O)[C@H]1CN[C@H](C(=O)NC2(C#N)CC2)C1 [Example 453, (2S,4R)-4-(2-Allyloxy-benzenesulfonyl)-pyrrolidine-2-carboxylic acid (1-cyano-cyclopropyl)-amide]
5.78	≤ 4.60	CC1(C(=O)N2C[C@H](S(=O)(=O)CC3CC3)C[C@H]2C(=O)NC2(C#N)CC2)CC1 [Example 454, (2S,4R)-4-Cyclopropylmethanesulfonyl-1-(1-methyl-cyclopropanecarbonyl)-pyrrolidine-2-carboxylic acid (1-cyano-cyclopropyl)-amide]
7.11	≤ 4.60	C=CCN[C@@H](C(=O)N1C[C@H](S(=O)(=O)c2ccccc2OCC=C)C[C@H]1C(=O)NC1(C#N)CC1)c1ccc(Cl)cc1 [Example 455, (2S,4R)-1-[(R)-2-Allylamino-2-(4-chloro-phenyl)-acetyl]-4-(2-allyloxy-benzenesulfonyl)-pyrrolidine-2-carboxylic acid (1-cyano-cyclopropyl)-amide]
9.14	5.40	Cc1cc(N2C[C@H](S(=O)(=O)c3ccc(N4CC(F)(F)C4)cc3Cl)C[C@H]2C(=O)NC2(C#N)CC2)n(C2CCC2)n1 [Example 456, (2S,4R)-4-(2-chloro-4-(3,3-difluoroazetidin-1-yl)phenylsulfonyl)-N-(1-cyanocyclopropyl)-1-(1-cyclobutyl-3-methyl-1H-pyrazol-5-yl)pyrrolidine-2-carboxamide]
